**Q.** Which solubility (mole fraction) (in acetonitrile, 273.15 K) does the source give for CC#CCn1c(N2CCC[C@@H](N)C2)nc2c1c(=O)n(Cc1nc(C)c3ccccc3n1)c(=O)n2C here?
**A.** 0.000425

**Q.** What about the solubility (mole fraction) (in acetonitrile, 278.15 K) of the same compound?
**A.** 0.000546

**Q.** What about the solubility (mole fraction) (in acetonitrile, 283.15 K) of the same compound?
**A.** 0.000675

**Q.** And the solubility (mole fraction) (in acetonitrile, 288.15 K)?
**A.** 0.000821

**Q.** And the solubility (mole fraction) (in acetonitrile, 293.15 K)?
**A.** 0.000974

**Q.** And the solubility (mole fraction) (in acetonitrile, 298.15 K)?
**A.** 0.00114

**Q.** And the solubility (mole fraction) (in acetonitrile, 303.15 K)?
**A.** 0.00132

**Q.** What about the solubility (mole fraction) (in acetonitrile, 308.15 K) of the same compound?
**A.** 0.00151

**Q.** What about the solubility (mole fraction) (in acetonitrile, 313.15 K) of the same compound?
**A.** 0.00172

**Q.** What about the solubility (mole fraction) (in ethanol, 273.15 K) of the same compound?
**A.** 0.000511

**Q.** And the solubility (mole fraction) (in ethanol, 278.15 K)?
**A.** 0.000637

**Q.** What about the solubility (mole fraction) (in ethanol, 283.15 K) of the same compound?
**A.** 0.000782

**Q.** What about the solubility (mole fraction) (in ethanol, 288.15 K) of the same compound?
**A.** 0.000947

**Q.** What about the solubility (mole fraction) (in ethanol, 293.15 K) of the same compound?
**A.** 0.00113

**Q.** And the solubility (mole fraction) (in ethanol, 298.15 K)?
**A.** 0.00137

**Q.** And the solubility (mole fraction) (in ethanol, 303.15 K)?
**A.** 0.00163

**Q.** What about the solubility (mole fraction) (in ethanol, 308.15 K) of the same compound?
**A.** 0.00194

**Q.** What about the solubility (mole fraction) (in ethanol, 313.15 K) of the same compound?
**A.** 0.00231

**Q.** And the solubility (mole fraction) (in isopropanol, 273.15 K)?
**A.** 0.000227

**Q.** And the solubility (mole fraction) (in isopropanol, 278.15 K)?
**A.** 0.000282

**Q.** And the solubility (mole fraction) (in isopropanol, 283.15 K)?
**A.** 0.000343

**Q.** What about the solubility (mole fraction) (in isopropanol, 288.15 K) of the same compound?
**A.** 0.000421

**Q.** What about the solubility (mole fraction) (in isopropanol, 293.15 K) of the same compound?
**A.** 0.000496

**Q.** And the solubility (mole fraction) (in isopropanol, 298.15 K)?
**A.** 0.000578

**Q.** What about the solubility (mole fraction) (in isopropanol, 303.15 K) of the same compound?
**A.** 0.000668

**Q.** What about the solubility (mole fraction) (in isopropanol, 308.15 K) of the same compound?
**A.** 0.000765

**Q.** And the solubility (mole fraction) (in isopropanol, 313.15 K)?
**A.** 0.000874

**Q.** And the solubility (mole fraction) (in methanol, 273.15 K)?
**A.** 0.00061

**Q.** And the solubility (mole fraction) (in methanol, 278.15 K)?
**A.** 0.000778

**Q.** What about the solubility (mole fraction) (in methanol, 283.15 K) of the same compound?
**A.** 0.00097

**Q.** And the solubility (mole fraction) (in methanol, 288.15 K)?
**A.** 0.00121

**Q.** What about the solubility (mole fraction) (in methanol, 293.15 K) of the same compound?
**A.** 0.00148

**Q.** What about the solubility (mole fraction) (in methanol, 298.15 K) of the same compound?
**A.** 0.00179

**Q.** And the solubility (mole fraction) (in methanol, 303.15 K)?
**A.** 0.00213

**Q.** And the solubility (mole fraction) (in methanol, 308.15 K)?
**A.** 0.00254

**Q.** And the solubility (mole fraction) (in methanol, 313.15 K)?
**A.** 0.00302

**Q.** And the solubility (mole fraction) (in n-propanol, 273.15 K)?
**A.** 0.000342

**Q.** What about the solubility (mole fraction) (in n-propanol, 278.15 K) of the same compound?
**A.** 0.000403

**Q.** And the solubility (mole fraction) (in n-propanol, 283.15 K)?
**A.** 0.000478

**Q.** What about the solubility (mole fraction) (in n-propanol, 288.15 K) of the same compound?
**A.** 0.000573

**Q.** And the solubility (mole fraction) (in n-propanol, 293.15 K)?
**A.** 0.00067

**Q.** What about the solubility (mole fraction) (in n-propanol, 298.15 K) of the same compound?
**A.** 0.000794

**Q.** And the solubility (mole fraction) (in n-propanol, 303.15 K)?
**A.** 0.00093

**Q.** What about the solubility (mole fraction) (in n-propanol, 308.15 K) of the same compound?
**A.** 0.00108

**Q.** What about the solubility (mole fraction) (in n-propanol, 313.15 K) of the same compound?
**A.** 0.00125

Reference: BigSolDB 2.1
